# From patent US10167299B2, “1-(3-aminopropyl) substituted cyclic amine compounds, preparation method therefor, and pharmaceutical compositions and uses thereof” (SHANGHAI INSTITUTE OF MATERIA MEDICA, CHINESE ACADEMY OF …, priority 2013, dated 2019)
# Key:
# [1] = Pharmacokinetic experiment of rats; conditions: for AUC(0-t) / AUC(0-inf) / Cmax / MRT / Tmax / bioavailability: male, rat, plasma
# Procedure: The administration volume was 10 mL/kg and drug was formulated with DMSO/Tween 80/physiological saline (5:5:90, v/v/v). […] 2 h after dosing, the rats ate together.
# At above time points, 0.3 ml of venous blood was taken from retrobulbar venous plexus of the rat and loaded into EDTA-2K anticoagulative tube. After centrifuged at 11000 rpm for 5 mm, the plasma was separated and frozen at −20° C. in a refrigerator.
# The concentration of each compound in rat plasma was determined by LC/MS/MS.
# (§3) The pharmacokinetic parameters after administration were calculated by using non-compartment model of WinNonlin 5.3 software (Pharsight Corporation, USA).
# [2] = system: Salmonella typhimurium strain TA98; test: Bacterial reverse mutation assay TA98 (-S9); type: cell-based; conditions: for mutagenic effect on Salmonella typhimurium strain TA98: -S9, 1-5000 μg/dish
# Procedure: (§1) The mutagenic effects of compounds 18 and 22 of the present invention on Salmonella typhimurium strains TA98 and TA100 in non-metabolic activation (-S9) condition were determined. Two strains, TA98 and TA100 were chosen in bacterial reverse mutation assay for compounds 18 and 22. 9 doses containing […], negative and positive controls were set in experiments. 3 dishes were used for each dose. The experiment was carried out under -S9 condition.
# [3] = system: Salmonella typhimurium strain TA100; test: Bacterial reverse mutation assay TA100 (-S9); type: cell-based; conditions: for mutagenic effect on Salmonella typhimurium strain TA100: -S9, 1-5000 μg/dish
# Procedure: as §1
# [4] = Pharmacokinetic experiment on Beagles
# Procedure: The administration volume was 2 mL/kg and 1 mL/kg, respectively. The compound was suspended in 20% PEG400 (4:96) for gavage and formulated in DMSO/Tween 80/physiological saline (5:1:94, v/v/v) for intravenous injection. […] 2 h after dosing, all of Beagles ate together.
# At above time points, 0.6 ml venous blood was taken from limb venous and loaded into EDTA-2K anticoagulative tube. After centrifuged at 11000 rpm for 5 mm, the plasma was separated and frozen at −20° C. in a refrigerator.
# as §3
# [5] = system: HOS-CD4-CCR5 cells; test: Toxicity test of compounds on HOS-CD4-CCR5 cells (MTT); type: cell-based; conditions: HOS-CD4+-CCR5 cells (Table 8)
# Procedure, shortened: (§2)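 MTT read-out (570 nm, 630 nm reference) after 3-day culture of HOS-CD4-CCR5 cells at 4×10^5/ml or 7-day culture of PHA-activated PBMC at 5×10^6/ml, with fresh medium added on day 3. Compounds were tested as six 5-fold dilutions in triplicate, in 10% FBS medium at 37 °C, 5% CO2.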
# [6] = system: PBMC cells; test: Toxicity test of compounds on PBMC cells (MTT); type: cell-based
# Procedure, shortened: as §2
# [7] = male, beagle, dog, plasma, iv, 3 mg/kg
# [8] = male, beagle, dog, plasma, po, 15 mg/kg
Structure (SMILES),mutagenic effect on Salmonella typhimurium strain TA98 [2],"number of revertant colonies (Mean ± SD) ([2]; TA98, -S9, 1 μg/dish)","number of revertant colonies (Mean ± SD) ([2]; TA98, -S9, 3 μg/dish)","number of revertant colonies (Mean ± SD) ([2]; TA98, -S9, 10 μg/dish)","number of revertant colonies (Mean ± SD) ([2]; TA98, -S9, 30 μg/dish)","number of revertant colonies (Mean ± SD) ([2]; TA98, -S9, 100 μg/dish)","number of revertant colonies (Mean ± SD) ([2]; TA98, -S9, 300 μg/dish)","number of revertant colonies (Mean ± SD) ([2]; TA98, -S9, 1000 μg/dish)","number of revertant colonies (Mean ± SD) ([2]; TA98, -S9, 3000 μg/dish)","number of revertant colonies (Mean ± SD) ([2]; TA98, -S9, 5000 μg/dish)",mutagenic effect on Salmonella typhimurium strain TA100 [3],"number of revertant colonies (Mean ± SD) ([3]; TA100, -S9, 1 μg/dish)","number of revertant colonies (Mean ± SD) ([3]; TA100, -S9, 3 μg/dish)","number of revertant colonies (Mean ± SD) ([3]; TA100, -S9, 10 μg/dish)","number of revertant colonies (Mean ± SD) ([3]; TA100, -S9, 30 μg/dish)","number of revertant colonies (Mean ± SD) ([3]; TA100, -S9, 100 μg/dish)","number of revertant colonies (Mean ± SD) ([3]; TA100, -S9, 300 μg/dish)","number of revertant colonies (Mean ± SD) ([3]; TA100, -S9, 1000 μg/dish)","number of revertant colonies (Mean ± SD) ([3]; TA100, -S9, 3000 μg/dish)","number of revertant colonies (Mean ± SD) ([3]; TA100, -S9, 5000 μg/dish)",other results
"Cc1nnc(C(C)C)n1C1CCN(CC[C@H](NC(=O)C2CCCC2)c2cccs2)CC1 [Compound 17, N-[(1S)-3-[4-(3-isopropyl-5-methyl-4H-1,2,4-triazol-4-yl)-piperidin-1-yl]-1-(thiophen-2-yl)propyl]cyclopentane-1-carboxamide]",,,,,,,,,,,,,,,,,,,,,"AUC(0-t) ([1]; intravenous, 10 mg/kg): 374 ng·h/mL; AUC(0-inf) ([1]; iv, 10 mg/kg): 394 ng·h/mL; AUC(0-t) ([1]; iv, 10 mg/kg): 374 ng·h/mL; Cmax ([1]; iv, 10 mg/kg): 246 ng/mL; MRT ([1]; iv, 10 mg/kg): 1.42 h; Tmax ([1]; iv, 10 mg/kg): 15 min; bioavailability ([1]; oral): 46.6%; AUC(0-inf) ([1]; po, 20 mg/kg): 364 ng·h/mL; AUC(0-t) ([1]; po, 20 mg/kg): 348 ng·h/mL; Cmax ([1]; po, 20 mg/kg): 122 ng/mL; MRT ([1]; po, 20 mg/kg): 2.31 h; Tmax ([1]; po, 20 mg/kg): 30 min; bioavailability ([1]; po, 20 mg/kg): 46.6%; AUC0-t ng/mL * h ([1]; rats, gavage, 20 mg/kg): 347.9 ng·h/mL; CLz ([1]; rats, vein, 10 mg/kg): 25.4 L/h/kg"
"Cc1nnc(C(C)C)n1C1CC2CCC(C1)N2CC[C@H](NC(=O)C1CCCC1)c1cccs1 (stereo partly drawn) [Compound 18, N-[(1S)-3-[exo-3-(3-isopropyl-5-methyl-4H-1,2,4-triazol-4-yl)-8-azabicyclo[3.2.1]octane-8-yl]-1-(thiophen-2-yl)propyl]cyclopentane-1-carboxamide]",no mutagenic effect,24 ± 5.0,23 ± 2.6,20 ± 2.3,19 ± 1.5,15 ± 4.6,20 ± 4.2,18 ± 1.5,21 ± 1.5,20 ± 4.9,no mutagenic effect,116 ± 9.0,96 ± 10.0,95 ± 13.1,100 ± 8.3,88 ± 0.6,91 ± 18.2,106 ± 17.6,108 ± 6.9,95 ± 7.2,
"Cc1nnc(C(C)C)n1C1CC2CCC(C1)N2CC[C@H](NC(=O)C1CCC(F)(F)CC1)c1ccsc1 (stereo partly drawn) [Compound 22, 4,4-difluoro-N-[(1S)-3-[exo-3-(3-isopropyl-5-methyl-4H-1,2,4-triazol-4-yl)-8-azabicyclo[3.2.1]octane-8-yl]-1-(thiophen-3-yl)propyl]cyclohexane-1-carboxamide]",no mutagenic effect,23 ± 3.2,24 ± 3.6,23 ± 2.6,21 ± 5.2,23 ± 6.7,23 ± 6.5,19 ± 6.4,22 ± 5.0,25 ± 7.2,no mutagenic effect,107 ± 16.7,109 ± 9.3,112 ± 10.7,90 ± 11.0,97 ± 4.6,102 ± 2.9,90 ± 6.5,86 ± 13.1,109 ± 17.5,"AUC(0-t) [4]: 10900 ng·h/mL; AUC0-t ng/mL * h ([4]; Beagles, gavage, 15 mg/kg): 5426 ng·h/mL; Tmax h ([4]; Beagles, gavage, 15 mg/kg): 50 min; t1/2 h ([4]; Beagles, gavage, 15 mg/kg): 3.89 h; CLz ([4]; Beagles, vein, 3 mg/kg): 0.278 L/h/kg; AUC(0-t) ([4]; male, beagle, dog, plasma, intravenous, 3 mg/kg): 10900 ng·h/mL; AUC(0-inf) [4, 7]: 10900 ng·h/mL; MRT [4, 7]: 1.65 h; half-life [4, 7]: 104 min; bioavailability ([4]; male, beagle, dog, plasma, oral): 9.98%; AUC(0-inf) [4, 8]: 5520 ng·h/mL; AUC(0-t) [4, 8]: 5430 ng·h/mL; Cmax [4, 8]: 4610 ng/mL; MRT [4, 8]: 2.11 h; bioavailability [4, 8]: 9.98%; half-life [4, 8]: 233 min; Tmax ([4]; male, beagle, dog, plasma, po, 15 mg/kg, Tmax h, Beagles, gavage): 50 min; CC50 [5]: >800 µg/mL"
"Cc1ccc([C@H](CCN2C3CCC2CC(n2c(C)nnc2C(C)C)C3)NC(=O)C2CCC(F)(F)CC2)s1 (stereo partly drawn) [Compound 29, 4,4-difluoro-N-[(1S)-3-[exo-3-(3-isopropyl-5-methyl-4H-1,2,4-triazol-4-yl)-8-azabicyclo[3.2.1]octane-8-yl]-1-(5-methylthiophen-2-yl)propyl]cyclohexane-1-carboxamide]",,,,,,,,,,,,,,,,,,,,,CC50 ([6]; PBMC cells (Table 5)): >200 µg/mL; CC50 ([6]; PBMC cells (Table 6)): >200 µg/mL; CC50 [5]: >200 µg/mL
